Values quoted from earlier work in US20250319037A1, “METHODS OF DELIVERING THERAPEUTIC AGENTS, AND LIPID COMPOSITIONS” (FUJIFILM Corporation, priority 2022, published 2025).

Conditions: Non-patent documents 11 and 12

## CC(C)CCC[C@@H](C)[C@H]1CC[C@H]2[C@@H]3CC=C4C[C@@H](OC(=O)NCCN(C)C)CC[C@]4(C)[C@H]3CC[C@]12C [DC-cholesterol]
  pKa of the tertiary amine group: 7.8
